Test system: PC12 cells
Assay: Neurite growth of NGF-stimulated PC12 cells with added ManNProp
Type: cell-based
Conditions: two days, control NGF only
Procedure: It is known that stimulation with nerve growth factor (NGF) causes neuronal differentiation in PC12 cells. At an NGF concentration of 250 ng/ml and after three days of incubation, the PC12 cells already form a network of neurites. In order to examine whether the addition of ManNProp has an influence on the neurite formation by PC12 cells, the suitable neurite lengths for different incubation times were first titrated with different NGF concentrations. At an NGF concentration of 100 ng and an incubation time of two days, the cells formed neurites whose length were double the diameter of their cell. Under such conditions, the further course of the experiments was set up. The cells were plated with a constant number of cells on culture chambers which consisted of four chambers and were coated with collagen I (col.), poly-D-lysine (PDL) or laminin, and incubated under three different sets of conditions. Each variation was represented in duplicate. In the first chamber, the PC12 cells were incubated with 5 mM ManNProp, and in the second chamber, they were incubated with 100 ng of NGF. […] The first and second chambers served as a reference control for the cells under the influence of NGF and ManNProp. For each experiment, three culture chambers were sown in duplicate. After two days of incubation, the cells were fixed with paraformaldehyde, stained with crystal violet and washed with water. For evaluation, various segments were photographed and measured according to a random choice principle. For the evaluation, only the cells stimulated with NGF which served as a control and the cells stimulated with NGF plus ManNProp were considered. Each bar represents three experiments performed on three different days. The relative neurite length was established by CAPA (computer-assisted process analysis), and the data were integrated by means of Delta Graph. All experiments shown here were independently performed on different days. The values from Table 1 were additionally represented graphically in FIG. 3.

## CCC(=O)N[C@@H]1C(O)O[C@H](CO)[C@@H](O)[C@@H]1O (stereo partly drawn) [ManNProp, N-propanoylmannosamine]
Col. (collagen I) coating, 0.5 mM ManNProp + 100 ng NGF
  Enhancement of neurite growth in percent relative to the control: 3%
Col. (collagen I) coating, 5 mM ManNProp + 100 ng NGF
  Enhancement of neurite growth in percent relative to the control: 11%
Col. (collagen I) coating, 25 mM ManNProp + 100 ng NGF
  Enhancement of neurite growth in percent relative to the control: 20%
Laminin coating, 0.5 mM ManNProp + 100 ng NGF
  Enhancement of neurite growth in percent relative to the control: 28%
Laminin coating, 5 mM ManNProp + 100 ng NGF
  Enhancement of neurite growth in percent relative to the control: 70%
Laminin coating, 25 mM ManNProp + 100 ng NGF
  Enhancement of neurite growth in percent relative to the control: 59%
PDL (poly-D-lysine) coating, 0.5 mM ManNProp + 100 ng NGF
  Enhancement of neurite growth in percent relative to the control: 4%
PDL (poly-D-lysine) coating, 5 mM ManNProp + 100 ng NGF
  Enhancement of neurite growth in percent relative to the control: 5%
PDL (poly-D-lysine) coating, 25 mM ManNProp + 100 ng NGF
  Enhancement of neurite growth in percent relative to the control: 17%

Source: patent publication US7217698B2, “Use of mannosamine derivatives for the stimulation of neurite growth” (Dompatent von Kreisler Selting Werner, priority 2001, dated 2007)
